Measured values as given in patent US6919455B2, “Purine derivative dihydrate, drugs containing the same as the active ingredient and intermediate in the production thereof” (Mitsubishi Chemical Corporation, priority 1999, dated 2005).

Tested on: PDE IV
Test: PDE IV inhibiting effect (3H-cAMP hydrolysis, crude enzyme from U937 cells)
Conditions: read-out: IC50 (concentration for 50% inhibition) against PDE IV; crude enzyme from cytoplasmic fraction of human monocyte-like U937 cells; 0.4 μM 3H-cAMP; pH 8.0; 30° C., 15 minutes
Method: The crude enzyme was purified from a cytoplasmic fraction of human monocyte-like cell strain U937 by using a Q-Sepharose column according to the method of Nicholson et al. (Br. J. Pharmacol., 97, 889 (1989)]. The enzymatic activity was determined by performing a reaction using 0.4 μM ^3H-cAMP as the substrate in 50 mM Tris buffer (pH 8.0) containing 0.1 mg/ml BSA, 1 ml of EDTA and 5 mM MgCl2 at 30° C. for 15 minutes, and then separating the produced ^3H-5′-AMP using a cation exchange column and measuring its radioactivity according to the method of Hidaka et al. [Biochem. Med., 10, 301 (1974)]. After a test compound was added, the reaction mixture was incubated at 30° C. for 15 minutes, and then added with the substrate.

COc1ccc(Cn2c(C)nc3c(C)nc(OCCCc4cc[n+]([O-])cc4)nc32)cc1OC1CCCC1 [dihydrate of the present invention, Dihydrate of 4-[[9-[(3-cyclopentyloxy-4-methoxy)benzyl]-6,8-dimethylpurine]-2-yl-3-oxypropyl]pyridine N-oxide]
IC50: 3.41 nM
